biological target: T1, human NaV1.6 (hNaV1.6) (Homo sapiens, UniProt Q9UQD0); experiment: Modulation of late sodium current (INaL), PatchXpress electrophysiology, HEK-293 cells expressing hNaV1.6; assay type: cell-based; conditions: HEK293, late current evoked by 300 nM ATX-II, read-out: NaV 1.6 Assay Data: percent inhibition of INaL at hNaV1.6
T1 construct: expressed in transfected cells; host or cells: HEK-293
Procedure: Functional characterization of exemplary compounds to modulate INaL expressed by the NaV1.6 voltage-gated sodium channel was accomplished using the PatchXpress™ high throughput electrophysiology platform (Molecular Devices, Sunnyvale, Calif.). HEK-293 cells expressing recombinant, human NaV1.6 (hNaV1.6) were grown in DMEM/high-glucose Dulbecco's modified, 10% FBS, 2 mM sodium pyruvate, 10 mM HEPES and 400 μg/mL G418. Cells were grown to 50%-80% confluency prior to harvesting. Trypsinized cells were washed, allowed to recover for 1 hour and then resuspended in extracellular recording solution at a concentration of 1×10^6 cells/ml. The onboard liquid handling facility of the PatchXpress was used for dispensing cells and applying test compounds. NaV late currents were evoked by the application of 300 nM ATX-II. INaL was evoked by depolarizing pulses to 0 mV for 200 ms from a non-inactivating holding potential (e.g., −120 mV) at a frequency of 0.1 Hz. INaL amplitude and stability were determined by analyzing the mean current amplitude over the final 20 ms of the test pulse. Following steady state block with exemplary compounds (e.g., as described herein), a Na+ free solution containing an impermeant cation (e.g., Choline or NDMG) was added to confirm the identify of the sodium current. Percent steady-state inhibition of INaL was calculated as: [(INaL_compound)/(INaL_control)]*100, where INaL_compound and INaL_control represent INaL recorded in the presence or absence of compound, respectively.

T1 sequence (Q9UQD0 whole entry): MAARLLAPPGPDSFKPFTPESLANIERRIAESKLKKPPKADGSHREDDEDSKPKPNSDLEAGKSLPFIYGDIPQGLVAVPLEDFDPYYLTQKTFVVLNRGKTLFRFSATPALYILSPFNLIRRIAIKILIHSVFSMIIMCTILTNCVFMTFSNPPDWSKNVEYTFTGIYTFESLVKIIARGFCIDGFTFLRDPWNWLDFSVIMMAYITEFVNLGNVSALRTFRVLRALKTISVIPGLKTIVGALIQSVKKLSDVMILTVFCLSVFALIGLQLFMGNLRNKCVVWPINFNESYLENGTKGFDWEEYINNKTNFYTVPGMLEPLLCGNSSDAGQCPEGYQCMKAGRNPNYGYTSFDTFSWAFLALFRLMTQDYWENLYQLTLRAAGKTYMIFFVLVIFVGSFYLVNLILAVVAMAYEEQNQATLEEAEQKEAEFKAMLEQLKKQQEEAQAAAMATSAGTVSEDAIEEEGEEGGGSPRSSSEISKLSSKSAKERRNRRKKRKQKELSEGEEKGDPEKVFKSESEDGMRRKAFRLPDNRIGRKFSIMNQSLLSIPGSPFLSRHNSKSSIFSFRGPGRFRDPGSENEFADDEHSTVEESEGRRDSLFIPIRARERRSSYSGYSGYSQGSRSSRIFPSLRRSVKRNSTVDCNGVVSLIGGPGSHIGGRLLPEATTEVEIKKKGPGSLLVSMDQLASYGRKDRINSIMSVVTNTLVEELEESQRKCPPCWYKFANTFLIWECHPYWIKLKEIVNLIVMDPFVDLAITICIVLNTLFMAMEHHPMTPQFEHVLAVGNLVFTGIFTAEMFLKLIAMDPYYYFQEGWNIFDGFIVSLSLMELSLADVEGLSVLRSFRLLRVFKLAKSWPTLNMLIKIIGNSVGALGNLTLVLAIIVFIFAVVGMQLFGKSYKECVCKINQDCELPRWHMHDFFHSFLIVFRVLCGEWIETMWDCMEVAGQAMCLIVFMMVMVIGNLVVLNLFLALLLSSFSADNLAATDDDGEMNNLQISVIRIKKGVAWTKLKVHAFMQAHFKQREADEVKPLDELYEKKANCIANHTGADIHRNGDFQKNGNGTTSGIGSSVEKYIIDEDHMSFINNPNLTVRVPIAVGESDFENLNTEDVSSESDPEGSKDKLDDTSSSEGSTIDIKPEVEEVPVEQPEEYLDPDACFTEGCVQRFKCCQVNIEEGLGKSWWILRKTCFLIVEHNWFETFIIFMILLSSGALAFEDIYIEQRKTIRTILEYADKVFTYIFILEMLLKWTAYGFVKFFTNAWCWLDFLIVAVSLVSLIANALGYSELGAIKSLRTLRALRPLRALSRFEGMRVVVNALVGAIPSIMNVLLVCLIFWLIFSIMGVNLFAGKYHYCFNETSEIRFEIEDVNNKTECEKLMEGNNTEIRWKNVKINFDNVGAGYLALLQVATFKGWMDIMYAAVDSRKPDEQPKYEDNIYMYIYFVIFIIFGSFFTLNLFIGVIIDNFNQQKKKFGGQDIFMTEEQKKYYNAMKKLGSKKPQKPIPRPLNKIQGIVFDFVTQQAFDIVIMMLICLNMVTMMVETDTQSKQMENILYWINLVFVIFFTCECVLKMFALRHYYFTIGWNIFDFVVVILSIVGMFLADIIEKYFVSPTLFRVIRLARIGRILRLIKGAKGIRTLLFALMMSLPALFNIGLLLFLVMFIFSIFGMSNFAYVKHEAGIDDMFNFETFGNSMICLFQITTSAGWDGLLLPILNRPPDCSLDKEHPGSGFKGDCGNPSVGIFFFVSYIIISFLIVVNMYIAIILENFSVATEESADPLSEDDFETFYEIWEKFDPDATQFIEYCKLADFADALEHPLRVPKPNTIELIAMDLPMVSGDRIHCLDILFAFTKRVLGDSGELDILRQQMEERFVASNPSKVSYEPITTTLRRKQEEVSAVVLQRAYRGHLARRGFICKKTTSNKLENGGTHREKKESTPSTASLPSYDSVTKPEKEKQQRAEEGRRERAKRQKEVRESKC

First: COC(F)(F)c1nnc2cc(C)c(-c3cnc(OCC(F)(F)F)c(F)c3)nn12 [Compound 65, 3-[difluoro(methoxy)methyl]-6-[5-fluoro-6-(2,2,2-trifluoroethoxy)-3-pyridyl]-7-methyl-[1,2,4]triazolo[4,3-b]pyridazine]
Second: COC(F)(F)c1nnc2cc(C)c(-c3cnc(O[C@H](C)C(F)(F)F)c(F)c3)nn12 [Compound 66, 3-[difluoro(methoxy)methyl]-6-[5-fluoro-6-[(1R)-2,2,2-trifluoro-1-methyl-ethoxy]-3-pyridyl]-7-methyl-[1,2,4]triazolo[4,3-b]pyridazine]
The inhibition at 1 µM of the first is lower: 30 to 70% for the first, > 70% for the second.

`CCOC(F)(F)c1nnc2cnc(-c3cnc(O[C@@H](C)C(F)(F)F)c(F)c3)c(C)n12` [Compound 67, 3-[ethoxy(difluoro)methyl]-6-[5-fluoro-6-[(1S)-2,2,2-trifluoro-1-methyl-ethoxy]-3-pyridyl]-5-methyl-[1,2,4]triazolo[4,3-a]pyrazine] and `COC(F)(F)c1nnc2cc(C)c(-c3cnc(O[C@@H](C)C(F)(F)F)c(F)c3)nn12` [Compound 68, 3-[difluoro(methoxy)methyl]-6-[5-fluoro-6-[(1S)-2,2,2-trifluoro-1-methyl-ethoxy]-3-pyridyl]-7-methyl-[1,2,4]triazolo[4,3-b]pyridazine] cannot be ordered by inhibition at 1 µM: > 70% for the first, > 70% for the second.

First: COCc1nnc2cc(C)c(-c3cnc(OC(C)(C)C(F)(F)F)c(F)c3)nn12 [Compound 69, 6-[5-fluoro-6-(2,2,2-trifluoro-1,1-dimethyl-ethoxy)-3-pyridyl]-3-(methoxymethyl)-7-methyl-[1,2,4]triazolo[4,3-b]pyridazine]
Second: COCc1nnc2cc(C)c(-c3cnc(O[C@@H](C)C(F)(F)F)c(F)c3)nn12 [Compound 70, 6-[5-fluoro-6-[(1S)-2,2,2-trifluoro-1-methyl-ethoxy]-3-pyridyl]-3-(methoxymethyl)-7-methyl-[1,2,4]triazolo[4,3-b]pyridazine]
The inhibition at 1 µM of the first is higher: 30 to 70% for the first, < 30% for the second.

`COCc1nnc2cc(C)c(-c3cnc(OCC(F)(F)F)c(F)c3)nn12` [Compound 71, 6-[5-fluoro-6-(2,2,2-trifluoroethoxy)-3-pyridyl]-3-(methoxymethyl)-7-methyl-[1,2,4]triazolo[4,3-b]pyridazine] and `COCc1nnc2cc(C)c(-c3cnc(O[C@H](C)C(F)(F)F)c(F)c3)nn12` [Compound 72, 6-[5-fluoro-6-[(1R)-2,2,2-trifluoro-1-methyl-ethoxy]-3-pyridyl]-3-(methoxymethyl)-7-methyl-[1,2,4]triazolo[4,3-b]pyridazine] cannot be ordered by inhibition at 1 µM: < 30% for the first, < 30% for the second.

`COC(F)(F)c1nnc2cnc(-c3ccc(OC4CC(F)(F)C4)nc3)cn12` [Compound 73, 3-(difluoro(methoxy)methyl)-6-(6-(3,3-difluorocyclobutoxy)pyridin-3-yl)-[1,2,4]triazolo[4,3-a]pyrazine] and `FC1(F)CC(Oc2ccc(-c3cn4c(C(F)(F)OC5CC5)nnc4cn3)cn2)C1` [Compound 78, 3-(cyclopropoxydifluoromethyl)-6-(6-(3,3-difluorocyclobutoxy)pyridin-3-yl)-[1,2,4]triazolo[4,3-a]pyrazine] cannot be ordered by inhibition at 1 µM: > 70% for the first, > 70% for the second.

`FC(F)(F)COc1ccc(-c2cn3c(C(F)(F)OC4CC4)nnc3cn2)cn1` [Compound 74, 3-(cyclopropoxydifluoromethyl)-6-(6-(2,2,2-trifluoroethoxy)pyridin-3-yl)-[1,2,4]triazolo[4,3-a]pyrazine] and `CCOC(F)(F)c1nnc2cnc(-c3ccc(OCC(F)(F)F)nc3)cn12` [Compound 81, 3-(ethoxydifluoromethyl)-6-(6-(2,2,2-trifluoroethoxy)pyridin-3-yl)-[1,2,4]triazolo[4,3-a]pyrazine] cannot be ordered by inhibition at 1 µM: > 70% for the first, > 70% for the second.

`Fc1cc(-c2cn3c(C(F)(F)OC4CC4)nnc3cn2)cnc1OCC(F)(F)F` [Compound 75, 3-(cyclopropoxydifluoromethyl)-6-(5-fluoro-6-(2,2,2-trifluoroethoxy)pyridin-3-yl)-[1,2,4]triazolo[4,3-a]pyrazine] and `CC(C)COC(F)(F)c1nnc2cnc(-c3cnc(OCC(F)(F)F)c(F)c3)cn12` [Compound 82, 3-(difluoro(isobutoxy)methyl)-6-(5-fluoro-6-(2,2,2-trifluoroethoxy)pyridin-3-yl)-[1,2,4]triazolo[4,3-a]pyrazine] cannot be ordered by inhibition at 1 µM: > 70% for the first, > 70% for the second.

`COC(F)(F)c1nnc2cnc(-c3cnc(OC4CC(F)(F)C4)c(F)c3)cn12` [Compound 76, 3-(difluoro(methoxy)methyl)-6-(6-(3,3-difluorocyclobutoxy)-5-fluoropyridin-3-yl)-[1,2,4]triazolo[4,3-a]pyrazine] and `CCOC(F)(F)c1nnc2cnc(-c3cnc(OC4CC(F)(F)C4)c(F)c3)cn12` [Compound 77, 6-(6-(3,3-difluorocyclobutoxy)-5-fluoropyridin-3-yl)-3-(ethoxydifluoromethyl)-[1,2,4]triazolo[4,3-a]pyrazine] cannot be ordered by inhibition at 1 µM: > 70% for the first, > 70% for the second.

`CCOCc1nnc2cnc(-c3cnc(OC(C)(C)C(F)(F)F)c(F)c3)cn12` [Compound 79, 3-(ethoxymethyl)-6-(5-fluoro-6-((1,1,1-trifluoro-2-methylpropan-2-yl)oxy)pyridin-3-yl)-[1,2,4]triazolo[4,3-a]pyrazine] and `CCOC(F)(F)c1nnc2cnc(-c3ccc(OC(C)(C)C(F)(F)F)nc3)cn12` [Compound 88, 3-(ethoxydifluoromethyl)-6-(6-((1,1,1-trifluoro-2-methylpropan-2-yl)oxy)pyridin-3-yl)-[1,2,4]triazolo[4,3-a]pyrazine] cannot be ordered by inhibition at 1 µM: > 70% for the first, > 70% for the second.

`COC(F)(F)c1nnc2ccc(-c3cnc(OC4CC(F)(F)C4)c(F)c3)cn12` [Compound 84, 3-(difluoro(methoxy)methyl)-6-(6-(3,3-difluorocyclobutoxy)-5-fluoropyridin-3-yl)-[1,2,4]triazolo[4,3-a]pyridine] and `CCOC(F)(F)c1nnc2ccc(-c3cnc(OC4CC(F)(F)C4)c(F)c3)cn12` [Compound 85, 6-(6-(3,3-difluorocyclobutoxy)-5-fluoropyridin-3-yl)-3-(ethoxydifluoromethyl)-[1,2,4]triazolo[4,3-a]pyridine] cannot be ordered by inhibition at 1 µM: > 70% for the first, > 70% for the second.

First: CCOC(F)(F)c1nnc2cnc(-c3ccc(O[C@H](C)C(F)(F)F)nc3)cn12 [Compound 86, (R)-3-(ethoxydifluoromethyl)-6-(6-((1,1,1-trifluoropropan-2-yl)oxy)pyridin-3-yl)-[1,2,4]triazolo[4,3-a]pyrazine]
Second: COCCOC(F)(F)c1nnc2cnc(-c3ccc(OCC(F)(F)F)nc3)cn12 [Compound 89]
The inhibition at 1 µM of the first is higher: > 70% for the first, 30 to 70% for the second.

Compound `COCc1nnc2ccc(-c3ccc(OC(C)(C)C(F)(F)F)nc3)cn12` [Compound 87, 3-(methoxymethyl)-6-(6-((1,1,1-trifluoro-2-methylpropan-2-yl)oxy)pyridin-3-yl)-[1,2,4]triazolo[4,3-a]pyridine] has an inhibition at 1 µM of 30 to 70%.
